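In this assay, cells in 96-well plates receive the compound at five concentrations for 48 hours. Endpoints are linearly interpolated between the surrounding concentrations. Here, GI50 denotes the concentration required for 50% inhibition of growth. TGI: total growth inhibition.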
How the values were obtained:
Assay in all cases: NCI tumour cell line growth inhibition, 48 h
PC-3 prostate = tested on: PC-3 prostate
SF-539 CNS = tested on: SF-539 CNS
CAKI-1 renal = tested on: CAKI-1 renal
TK-10 renal = tested on: TK-10 renal
SK-MEL-5 melanoma = tested on: SK-MEL-5 melanoma
MALME-3M melanoma = tested on: MALME-3M melanoma
RPMI-8226 leukemia = tested on: RPMI-8226 leukemia
A549 NSCLC = tested on: A549 NSCLC
UACC-257 melanoma = tested on: UACC-257 melanoma
SK-MEL-28 melanoma = tested on: SK-MEL-28 melanoma
A498 renal = tested on: A498 renal
HCT-15 colon = tested on: HCT-15 colon
UO-31 renal = tested on: UO-31 renal
CCRF-CEM leukemia = tested on: CCRF-CEM leukemia
OVCAR-8 ovarian = tested on: OVCAR-8 ovarian
UACC-62 melanoma = tested on: UACC-62 melanoma
KM12 colon = tested on: KM12 colon
SN12C renal = tested on: SN12C renal
NCI-H226 lung = tested on: NCI-H226 lung
HS 578T breast = tested on: HS 578T breast
MOLT-4 leukemia = tested on: MOLT-4 leukemia
OVCAR-4 ovarian = tested on: OVCAR-4 ovarian
OVCAR-5 ovarian = tested on: OVCAR-5 ovarian
SNB-75 CNS = tested on: SNB-75 CNS
RXF 393 renal = tested on: RXF 393 renal
IGROV1 ovarian = tested on: IGROV1 ovarian
K-562 leukemia = tested on: K-562 leukemia
NCI-H522 lung = tested on: NCI-H522 lung
786-0 renal = tested on: 786-0 renal
M14 melanoma = tested on: M14 melanoma
HCC-2998 colon = tested on: HCC-2998 colon
SR leukemia = tested on: SR leukemia
MCF7 breast = tested on: MCF7 breast
SF-295 CNS = tested on: SF-295 CNS
U251 CNS = tested on: U251 CNS
OVCAR-3 ovarian = tested on: OVCAR-3 ovarian
SK-MEL-2 melanoma = tested on: SK-MEL-2 melanoma
SF-268 CNS = tested on: SF-268 CNS
SW-620 colon = tested on: SW-620 colon
LOX IMVI melanoma = tested on: LOX IMVI melanoma
HL-60(TB) leukemia = tested on: HL-60(TB) leukemia
DU-145 prostate = tested on: DU-145 prostate
BT-549 breast = tested on: BT-549 breast
ACHN renal = tested on: ACHN renal
HT29 colon = tested on: HT29 colon
MDA-MB-435 = tested on: MDA-MB-435
NCI-H460 lung = tested on: NCI-H460 lung
SK-OV-3 ovarian = tested on: SK-OV-3 ovarian
NCI-H23 lung = tested on: NCI-H23 lung
MDA-MB-231 breast = tested on: MDA-MB-231 breast
HOP-62 NSCLC = tested on: HOP-62 NSCLC
NCI/ADR-RES ovarian = tested on: NCI/ADR-RES ovarian
SNB-19 CNS = tested on: SNB-19 CNS
COLO 205 colon = tested on: COLO 205 colon
HCT-116 colon = tested on: HCT-116 colon
HOP-92 NSCLC = tested on: HOP-92 NSCLC
T-47D breast = tested on: T-47D breast

COc1ccc([C@H](CC(=O)O)N2CCN(CCCc3ccc4c(n3)NCCC4)C2=O)cn1 was tested. Which GI50 (PC-3 prostate) did it give?
Its GI50 is > 100 µM.

And the TGI (PC-3 prostate)?
The TGI was > 100 µM.

What about the GI50 (SF-539 CNS) of the same compound?
Its GI50 is > 100 µM.

And the TGI (SF-539 CNS)?
Its TGI is > 100 µM.

And the GI50 (CAKI-1 renal)?
The GI50 was 2.71 µM.

What about the TGI (CAKI-1 renal) of the same compound?
The TGI was > 100 µM.

What about the GI50 (TK-10 renal) of the same compound?
Its GI50 is 0.0167 µM.

And the TGI (TK-10 renal)?
The TGI was 0.0795 µM.

What about the GI50 (SK-MEL-5 melanoma) of the same compound?
The GI50 was 0.0501 µM.

What about the TGI (SK-MEL-5 melanoma) of the same compound?
The TGI was 0.173 µM.

And the GI50 (MALME-3M melanoma)?
The GI50 was > 100 µM.

And the TGI (MALME-3M melanoma)?
The TGI was > 100 µM.

And the GI50 (RPMI-8226 leukemia)?
The GI50 was > 100 µM.

What about the TGI (RPMI-8226 leukemia) of the same compound?
Its TGI is > 100 µM.

And the GI50 (A549 NSCLC)?
Its GI50 is 3.07 µM.

And the TGI (A549 NSCLC)?
The TGI was > 30.3 µM.

What about the TGI (UACC-257 melanoma) of the same compound?
Its TGI is > 100 µM.

What about the GI50 (SK-MEL-28 melanoma) of the same compound?
Its GI50 is > 28.7 µM.

What about the TGI (SK-MEL-28 melanoma) of the same compound?
Its TGI is > 100 µM.

And the GI50 (A498 renal)?
The GI50 was 0.0116 µM.

And the TGI (A498 renal)?
Its TGI is 0.0633 µM.

And the GI50 (HCT-15 colon)?
The GI50 was 0.311 µM.

What about the GI50 (UO-31 renal) of the same compound?
Its GI50 is > 36.7 µM.

What about the TGI (UO-31 renal) of the same compound?
Its TGI is > 100 µM.

What about the GI50 (CCRF-CEM leukemia) of the same compound?
The GI50 was > 100 µM.

And the TGI (CCRF-CEM leukemia)?
Its TGI is > 100 µM.

What about the GI50 (OVCAR-8 ovarian) of the same compound?
Its GI50 is 0.277 µM.

And the TGI (OVCAR-8 ovarian)?
The TGI was > 40 µM.

And the GI50 (UACC-62 melanoma)?
Its GI50 is > 100 µM.

And the TGI (UACC-62 melanoma)?
Its TGI is > 100 µM.

And the GI50 (KM12 colon)?
Its GI50 is > 100 µM.

What about the TGI (KM12 colon) of the same compound?
The TGI was > 100 µM.

What about the GI50 (SN12C renal) of the same compound?
Its GI50 is 0.515 µM.

And the GI50 (NCI-H226 lung)?
The GI50 was 0.417 µM.

And the GI50 (HS 578T breast)?
The GI50 was 7.15 µM.

And the TGI (HS 578T breast)?
The TGI was > 100 µM.

And the GI50 (MOLT-4 leukemia)?
Its GI50 is > 100 µM.

What about the TGI (MOLT-4 leukemia) of the same compound?
The TGI was > 100 µM.

What about the GI50 (OVCAR-4 ovarian) of the same compound?
Its GI50 is > 100 µM.

What about the TGI (OVCAR-4 ovarian) of the same compound?
The TGI was > 100 µM.

What about the GI50 (OVCAR-5 ovarian) of the same compound?
The GI50 was 0.403 µM.

And the TGI (OVCAR-5 ovarian)?
Its TGI is > 100 µM.

And the GI50 (SNB-75 CNS)?
Its GI50 is 0.0112 µM.

What about the TGI (SNB-75 CNS) of the same compound?
The TGI was 0.0278 µM.

And the GI50 (RXF 393 renal)?
The GI50 was 0.136 µM.

And the TGI (RXF 393 renal)?
The TGI was > 100 µM.

What about the GI50 (IGROV1 ovarian) of the same compound?
Its GI50 is > 38.1 µM.

And the TGI (IGROV1 ovarian)?
The TGI was > 100 µM.

What about the GI50 (K-562 leukemia) of the same compound?
Its GI50 is > 80.8 µM.

What about the TGI (K-562 leukemia) of the same compound?
Its TGI is > 100 µM.

What about the GI50 (NCI-H522 lung) of the same compound?
Its GI50 is 0.114 µM.

What about the TGI (NCI-H522 lung) of the same compound?
The TGI was 0.267 µM.

What about the GI50 (786-0 renal) of the same compound?
Its GI50 is 0.346 µM.

What about the TGI (786-0 renal) of the same compound?
Its TGI is > 100 µM.

And the GI50 (M14 melanoma)?
The GI50 was > 100 µM.

And the TGI (M14 melanoma)?
Its TGI is > 100 µM.

What about the GI50 (HCC-2998 colon) of the same compound?
Its GI50 is > 100 µM.

And the TGI (HCC-2998 colon)?
Its TGI is > 100 µM.

What about the GI50 (SR leukemia) of the same compound?
The GI50 was > 100 µM.

And the TGI (SR leukemia)?
Its TGI is > 100 µM.

What about the GI50 (MCF7 breast) of the same compound?
The GI50 was 0.247 µM.

What about the TGI (MCF7 breast) of the same compound?
The TGI was 0.902 µM.

And the GI50 (SF-295 CNS)?
The GI50 was 47.6 µM.

What about the TGI (SF-295 CNS) of the same compound?
Its TGI is > 100 µM.

And the GI50 (U251 CNS)?
Its GI50 is 0.934 µM.

What about the TGI (U251 CNS) of the same compound?
The TGI was > 100 µM.

And the GI50 (OVCAR-3 ovarian)?
The GI50 was > 100 µM.

And the TGI (OVCAR-3 ovarian)?
Its TGI is > 100 µM.

What about the GI50 (SK-MEL-2 melanoma) of the same compound?
The GI50 was 0.0331 µM.

What about the TGI (SK-MEL-2 melanoma) of the same compound?
Its TGI is 0.237 µM.

What about the GI50 (SF-268 CNS) of the same compound?
The GI50 was 0.754 µM.

What about the TGI (SF-268 CNS) of the same compound?
The TGI was > 100 µM.

What about the TGI (SW-620 colon) of the same compound?
The TGI was > 100 µM.

And the GI50 (LOX IMVI melanoma)?
Its GI50 is 0.715 µM.

And the TGI (LOX IMVI melanoma)?
The TGI was 4.23 µM.

And the GI50 (HL-60(TB) leukemia)?
Its GI50 is > 100 µM.

What about the TGI (HL-60(TB) leukemia) of the same compound?
Its TGI is > 100 µM.

What about the GI50 (DU-145 prostate) of the same compound?
Its GI50 is 0.951 µM.

And the TGI (DU-145 prostate)?
Its TGI is 12.5 µM.

And the GI50 (BT-549 breast)?
The GI50 was 0.153 µM.

What about the TGI (BT-549 breast) of the same compound?
Its TGI is 0.296 µM.

What about the GI50 (ACHN renal) of the same compound?
Its GI50 is > 52 µM.

What about the TGI (ACHN renal) of the same compound?
Its TGI is > 100 µM.

What about the GI50 (HT29 colon) of the same compound?
The GI50 was 0.794 µM.

What about the TGI (HT29 colon) of the same compound?
The TGI was > 100 µM.

What about the GI50 (MDA-MB-435) of the same compound?
The GI50 was 0.0216 µM.

What about the TGI (MDA-MB-435) of the same compound?
The TGI was 0.0602 µM.

And the GI50 (NCI-H460 lung)?
The GI50 was 4.36 µM.

What about the TGI (NCI-H460 lung) of the same compound?
The TGI was > 100 µM.

What about the GI50 (SK-OV-3 ovarian) of the same compound?
The GI50 was > 100 µM.

And the TGI (SK-OV-3 ovarian)?
The TGI was > 100 µM.

And the GI50 (NCI-H23 lung)?
The GI50 was 0.892 µM.

And the TGI (NCI-H23 lung)?
Its TGI is 4.07 µM.

What about the GI50 (MDA-MB-231 breast) of the same compound?
Its GI50 is 0.254 µM.

What about the GI50 (HOP-62 NSCLC) of the same compound?
Its GI50 is 0.414 µM.

And the TGI (HOP-62 NSCLC)?
The TGI was > 100 µM.

What about the GI50 (NCI/ADR-RES ovarian) of the same compound?
The GI50 was > 100 µM.

And the TGI (NCI/ADR-RES ovarian)?
Its TGI is > 100 µM.

And the GI50 (SNB-19 CNS)?
The GI50 was 0.426 µM.

And the TGI (SNB-19 CNS)?
The TGI was > 100 µM.

What about the GI50 (COLO 205 colon) of the same compound?
The GI50 was > 100 µM.

What about the TGI (COLO 205 colon) of the same compound?
Its TGI is > 100 µM.

And the GI50 (HCT-116 colon)?
Its GI50 is 0.202 µM.

And the TGI (HCT-116 colon)?
Its TGI is > 34.7 µM.

And the GI50 (HOP-92 NSCLC)?
Its GI50 is 0.0348 µM.

What about the TGI (HOP-92 NSCLC) of the same compound?
Its TGI is 0.159 µM.

And the GI50 (T-47D breast)?
Its GI50 is 0.382 µM.

What about the TGI (T-47D breast) of the same compound?
The TGI was 4.65 µM.
